Measurements as given in US7022696B2, “Piperazino-derivatives and their use as PDE4 inhibitor” (Altana Pharma AG, priority 2001, dated 2006).

melting point	SMILES
83 to 85 °C	CCOc1ccc(C2=NN(c3ccc(C(=O)N4CCN(Cc5ccncc5)CC4)cc3)C(=O)[C@@H]3CC=CC[C@H]23)cc1OCC.Cl.Cl [Compound 25, (4aS,8aR)-4-(3,4-Diethoxy-phenyl)-2-{4-[1-(4-pyridin-4-ylmethyl-piperazin-1-yl)-methanoyl]-phenyl}-4a,5,8,8a-tetrahydro-2H-phthalazin-1-one dihydrochloride]
203 to 206 °C (dec.)	CCOc1ccc(C2=NN(c3ccc(C(=O)N4CCN(c5cc(C)nc6ccccc56)CC4)cc3)C(=O)[C@@H]3CC=CC[C@H]23)cc1OCC.Cl [Compound 26, (4aS,8aR)-4-(3,4-Diethoxy-phenyl)-2-(4-{1-[4-(2-methyl-quinolin-4-yl)-piperazin-1-yl]-methanoyl}-phenyl)-4a,5,8,8a-tetrahydro-2H-phthalazin-1-one hydrochloride]
164 to 167 °C	CCOc1ccc(C2=NN(c3ccc(C(=O)N4CCN(c5ccncc5)CC4)cc3)C(=O)[C@@H]3CC=CC[C@H]23)cc1OCC.Cl [Compound 27, (4aS,8aR)-4-(3,4-Diethoxy-phenyl)-2-{4-[1-(4-pyridin-4-yl-piperazin-1-yl)-methanoyl]-phenyl}-4a,5,8,8a-tetrahydro-2H-phthalazin-1-one hydrochloride]
275 °C (dec.)	CCOc1ccc(C2=NN(c3ccc(C(=O)N4CCN(C5CCN(C)CC5)CC4)cc3)C(=O)[C@@H]3CC=CC[C@H]23)cc1OCC.Cl.Cl [Compound 28, (4aS,8aR)-4-(3,4-Diethoxy-phenyl)-2-(4-{1-[4-(1-methyl-piperidin-4-yl)-piperazin-1-yl]-methanoyl}-phenyl)-4a,5,8,8a-tetrahydro-2H-phthalazin-1-one dihydrochloride]
121 to 123 °C	CCOc1ccc(C2=NN(c3ccc(C(=O)N4CCN(c5ccc(C(F)(F)F)cn5)CC4)cc3)C(=O)[C@@H]3CC=CC[C@H]23)cc1OCC [Compound 29, (4aS,8aR)-4-(3,4-Diethoxy-phenyl)-2-(4-{1-[4-(5-trifluoromethyl-pyridin-2-yl)-piperazin-1-yl]-methanoyl}-phenyl)-4a,5,8,8a-tetrahydro-2H-phthalazin-1-one]
